Assay results published in the supplement of paper PMC10307832.

Key:
Assay in all cases: relative viability (nuclei count vs DMSO), 5 days (fraction); higher = more cells survive
[1] = compound: C1=CC2=C(C=CC(=C2)C=C3C(=O)NC(=NCC4=CC=CS4)S3)N=C1 [RO-3306] + CC(C)C[C@H](NC(=O)[C@H](Cc1ccccc1)NC(=O)c1cnccn1)B(O)O [Bortezomib] (partner 0.002 µM)
Method in brief: (§1)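 Relative viability equals treated-well nuclei counts divided by vehicle-well nuclei counts. Counts came from 4× images of lung cancer cell lines grown in 1536-well plates for 5 days after pin-tool dosing on the day after seeding. Dosing used one drug alone or a fixed anchor-drug dose plus five library-drug doses (not always all listed) in √10 steps, and values are medians of duplicate plates.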

[2] = compound: C1=CC2=C(C=CC(=C2)C=C3C(=O)NC(=NCC4=CC=CS4)S3)N=C1 [RO-3306] + Cc1cc(Nc2cc(N3CCN(C)CC3)nc(Sc3ccc(NC(=O)C4CC4)cc3)n2)n[nH]1 [Tozasertib] (partner 0.1 µM)
Method in brief: as §1

[3] = compound: C1=CC2=C(C=CC(=C2)C=C3C(=O)NC(=NCC4=CC=CS4)S3)N=C1 [RO-3306] + O=C(c1cc(Cc2n[nH]c(=O)c3ccccc23)ccc1F)N1CCN(C(=O)C2CC2)CC1 [Olaparib] (partner 8 µM)
Method in brief: as §1

[4] = compound: O=S(=O)(c1ccccc1)N(CC(F)(F)F)c1ccc(C(O)(C(F)(F)F)C(F)(F)F)cc1 + COc1cccc2cc(-c3nc([C@H]4CC[C@H](C(=O)O)CC4)n4ncnc(N)c34)[nH]c12 [OSI-027] (partner 0.5 µM)
Method in brief: as §1

Row | Cell Line | relative viability ([1]; first compound 0.01 µM) | relative viability ([1]; first compound 0.03162 µM) | relative viability ([1]; first compound 0.1 µM) | relative viability ([1]; first compound 0.3162 µM) | relative viability ([1]; first compound 1 µM) | relative viability ([2]; first compound 0.01 µM) | relative viability ([2]; first compound 0.03162 µM) | relative viability ([2]; first compound 0.1 µM) | relative viability ([2]; first compound 0.3162 µM) | relative viability ([2]; first compound 1 µM) | relative viability ([3]; first compound 0.01 µM) | relative viability ([3]; first compound 0.03162 µM) | relative viability ([3]; first compound 0.1 µM) | relative viability ([3]; first compound 0.3162 µM) | relative viability ([3]; first compound 1 µM) | relative viability ([4]; first compound 0.8 µM) | relative viability ([4]; first compound 2.53 µM) | relative viability ([4]; first compound 8 µM)
1 | NCI-H596 | 0.939 | 0.917 | 1.18 | 0.812 | 0.962 | 0.837 | 0.712 | 0.771 | 0.834 | 0.794 | 0.675 | 0.669 | 0.616 | 0.672 | 0.569 | 0.71 | 0.6 | 0.716
2 | NCI-H647 | 1.13 | 0.889 | 1.04 | 0.931 | 0.751 | 0.333 | 0.0513 | 0.304 | 0.269 | 0.158 | 0.86 | 0.212 | 0.487 | 0.686 | 0.623 | 0.592 | 0.498 | 0.681
3 | NCI-H1666 | 0.848 | 0.734 | 0.713 | 0.765 | 0.598 | 0.64 | 0.588 | 0.59 | 0.631 | 0.59 | 0.749 | 0.749 | 0.693 | 0.685 | 0.729 | 0.849 | 0.819 | 0.813
4 | LOU-NH91 | 0.557 | 0.491 | 0.441 | 0.483 | 0.442 | 0.667 | 0.63 | 0.669 | 0.638 | 0.561 | 0.953 | 0.834 | 0.916 | 0.913 | 0.813 | 0.722 | 0.718 | 0.79
5 | EMC-BAC-2 | 1.21 | 0.912 | 1.11 | 1.06 | 1.01 | 0.394 | 0.306 | 0.295 | 0.263 | 0.254 | 0.472 | 0.459 | 0.468 | 0.481 | 0.448 | 0.455 | 0.422 | 0.37
6 | NCI-H2085 | 1.09 | 0.956 | 0.935 | 0.993 | 1.04 | 0.763 | 0.775 | 0.78 | 0.712 | 0.641 | 0.699 | 0.685 | 0.811 | 0.714 | 0.757 | 0.98 | 0.718 | 0.769
7 | HCC-78 | 0.433 | 0.362 | 0.511 | 0.572 | 0.543 | 0.436 | 0.4 | 0.515 | 0.431 | 0.448 | 0.849 | 0.714 | 0.93 | 0.938 | 0.762 | 0.342 | 0.399 | 0.469
8 | A-427 | 0.935 | 1.04 | 0.942 | 0.906 | 0.478 | 0.173 | 0.181 | 0.166 | 0.173 | 0.235 | 0.81 | 0.813 | 0.705 | 0.778 | 0.652 | 0.434 | 0.479 | 0.676
9 | NCI-H441 | 0.771 | 0.4 | 0.647 | 0.449 | 0.31 | 0.587 | 0.527 | 0.604 | 0.538 | 0.481 | 0.641 | 0.461 | 0.592 | 0.581 | 0.443 | 0.669 | 0.517 | 0.62
